The values below come from BindingDB's records for doi:10.1016/0024-3205(83)90740-3 (University of Toronto, 1983).

pKi: −log10 of the molar value. “And” between values parts separate entries of the source, which are not always exact repeats. Equal values may be shown once.

Sequence of 5-hydroxytryptamine receptor 2A (P14842 whole entry): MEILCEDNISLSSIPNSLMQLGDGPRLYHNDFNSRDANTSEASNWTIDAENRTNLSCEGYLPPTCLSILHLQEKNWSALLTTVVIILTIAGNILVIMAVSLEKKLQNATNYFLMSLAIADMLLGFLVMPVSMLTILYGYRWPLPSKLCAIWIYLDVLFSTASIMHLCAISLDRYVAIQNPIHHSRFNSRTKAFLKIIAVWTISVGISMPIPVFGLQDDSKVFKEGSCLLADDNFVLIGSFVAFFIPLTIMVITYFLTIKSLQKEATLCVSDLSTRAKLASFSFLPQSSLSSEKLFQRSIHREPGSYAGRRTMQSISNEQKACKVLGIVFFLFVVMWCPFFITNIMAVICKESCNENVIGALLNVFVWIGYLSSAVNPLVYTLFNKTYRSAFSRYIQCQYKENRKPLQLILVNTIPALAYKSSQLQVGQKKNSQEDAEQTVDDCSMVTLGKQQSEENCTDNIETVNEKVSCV

The assay addresses 5-hydroxytryptamine receptor 2A (Rattus norvegicus, UniProt P14842).
In general, pKi refers to the Ki on a negative log10 scale, so that one unit is a factor of ten. Consider `NCCc1c[nH]c2ccccc12` [1H-indole-3-ethanamine], for which the pKi was 5.53 and 5.77 and 6.27.

For the molecule `CN(C)CCCSc1ccccc1NC(=O)/C=C/c1ccccc1` [CINANSERIN], the pKi is 8.00 and 8.26 and 8.35.

For the molecule `c1ccc2nc(N3CCNCC3)ccc2c1` [2-Piperazin-1-yl-quinoline (Quipazine)], the pKi is 6.24 and 6.65 and 7.00.
